Reference: patent US20220282217A1, “COMPOSITIONS AND METHODS FOR PREPARING T CELL COMPOSITIONS AND USES THEREOF” (priority 2019, published 2022)
Where two headings read alike, the source gives them in different places. Where a SMILES comes first, the peptide text is derived from it.

Experiments:
[1] = target: T1, HLA-B08.01 (Homo sapiens, UniProt P01889, A93T/A95T/D138N/E176V/E187T/K202T/Q94N/R180D/S35A/V36M/Y33D/Y91F); assay: Class I MHC peptide binding stability (pMHC-I dissociation, 125I-labeled light chain); conditions: Allele B08.01
[2] = target: T2, HLA-B07.02 (Homo sapiens, UniProt P01889); assay: as above; set-up: made in house; host or cells: E. coli; conditions: Allele B07.02
[3] = target: T3, HLA-A03.01 (Homo sapiens, UniProt P04439); assay: as above; set-up: made in house; host or cells: E. coli; conditions: for Stability (half-life (hr.)): BTK C481S peptide; for Stability (half-life (hr.)) / Measured stability: HLA Allele A03.01; for Measured stability: time for half of the complexes to dissociate at 37° C.
[4] = target: T4, HLA-A01.01 (Homo sapiens, UniProt P04439, A114D/A174V/A182V/D101N/E190D/Q94H/R68K/S129P/V100A/V91M/W191G); assay: as above
T4 construct: made in house; host or cells: E. coli

[5] = target: T3, HLA-A03.01; assay: Class I MHC peptide binding affinity (displacement of radiolabeled reference peptide)
[6] = target: HLA-A01.01 (Homo sapiens, UniProt P04439, A114D/A174V/A182V/D101N/D185E/E176A/E190D/L180R/Q94H/R68K/S129P/T187R/V100A/V91M/W191G); assay: as above
How it was run: (§1)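 Displacement format in which varying amounts of peptide compete for 2 days with a radiolabeled reference ligand prebound to class I MHC, residual complex-associated label being measured after gel-filtration separation.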

[7] = target: HLA-A11.01 (Homo sapiens, UniProt P04439, A114D/D185E/E176A/F33Y/L180Q/S129P/T187R); assay: as above
[8] = target: T5, HLA-A02.01 (Homo sapiens, UniProt P04439, D140Y/D185E/D98H/E176V/E277Q/G131W/G231S/I119V/I121R/I166T/I218V/N151K/N90K/P208A/P217A/Q86G/Q94H/R138H/R169H); assay: Class I MHC peptide binding stability (pMHC-I dissociation, 125I-labeled light chain); conditions: allele A02.01
T5 construct: made in house; host or cells: E. coli

[9] = target: T6, HLA-A11.01 (Homo sapiens, UniProt P04439, A114D/F33Y/S129P); assay: as above; conditions: HLA Allele A11.01; time for half of the complexes to dissociate at 37° C.
T6 construct: made in house; host or cells: E. coli

[10] = target: HLA-A02.01 (Homo sapiens, UniProt P04439, D140Y/D185E/D98H/E176V/E277Q/G131W/G231S/I119V/I121R/I166T/I218V/L300P/L318F/N151K/N90K/P208A/P217A/Q86G/Q94H/R138H/R169H/T345S); assay: Class I MHC peptide binding affinity (displacement of radiolabeled reference peptide); conditions: allele A02.01, (nM))
How it was run: as §1

[11] = target: 293T cells transduced with GATA3 neoORF, expressing the HLA of interest (Homo sapiens, UniProt P01889); assay: Presentation of GATA3 neoantigens: HLA-eluted peptides by targeted MS/MS (PRM) (Table 14); format: cell-based; conditions: GATA3 neoORF transduced 293T cells expressing HLA-B*07:02 protein
Protocol: To assess whether antigens could be processed and presented from the larger polypeptide context, peptides eluted from HLA molecules isolated from cells expressing the genes of interest were analyzed by tandem mass spectrometry (MS/MS).
Between 50 and 700 million of the transduced cells expressing peptides encoded by the GATA3 neoORF sequence were cultured and peptides were eluted from HLA-peptide complexes using an acid wash. Eluted peptides were then analyzed by targeted MS/MS using PRM. Spectral comparison between peptides derived from GATA3 neoORF and corresponding synthetic peptides were performed to confirm each detection.

[12] = target: T2, HLA-B07.02; assay: Class I MHC peptide binding affinity (displacement of radiolabeled reference peptide)
[13] = target: T1, HLA-B08.01; assay: as above
How it was run: as §1

[14] = BTK C481S peptide, HLA Allele A01.01
[15] = Observed Affinity (IC50, (nM)), allele A01.01
[16] = read-out: Observed Affinity (IC50
[17] = allele A03.01, read-out: Observed Affinity (IC50, (nM))
[18] = Allele B07.02, read-out: Observed Affinity (IC50, (nM))

`CSCC[C@H](NC(=O)[C@H](Cc1c[nH]c2ccccc12)NC(=O)[C@H](Cc1c[nH]cn1)NC(=O)[C@H](CC(N)=O)NC(=O)[C@H](CCCNC(=N)N)NC(=O)[C@H](CCCNC(=N)N)NC(=O)[C@H](CCC(N)=O)NC(=O)[C@H](CO)NC(=O)[C@@H]1CCCN1C(=O)[C@@H](N)CC(C)C)C(=O)O` was tested, and the “Stability (T1/2 (h))” value [1] was 0.7 h and the “Stability (T1/2 (h))” value [2] was 6.5 h.

`CSCC[C@H](N)C(=O)N[C@@H](C)C(=O)N[C@@H](CC(N)=O)C(=O)NCC(=O)N[C@@H](CO)C(=O)N[C@@H](CC(C)C)C(=O)N[C@@H](CC(C)C)C(=O)N[C@@H](CC(N)=O)C(=O)N[C@@H](Cc1ccc(O)cc1)C(=O)O` was tested, and the “Stability (half-life (hr.))” value [3] was 14.3 min, the “Stability (half-life (hr.))” value [4, 14] was 12.98 min and the IC50 ([5]; Affinity (nM), BTK C481S peptide, HLA Allele A03.01) was 35.6 nM. The IC50 ([5]; Observed Affinity (IC50, (nM)), allele A03.01) was 35.6 nM, the IC50 ([6]; Affinity (nM), BTK C481S peptide, HLA Allele A01.01) was 439 nM and the IC50 [6, 15] was 439 nM. For the same molecule, the IC50 [7] was 536 nM.

In the case of `CC(C)C[C@H](NC(=O)[C@@H]1CCCN1C(=O)[C@H](CS)NC(=O)[C@H](CC(C)C)NC(=O)[C@H](Cc1c[nH]cn1)NC(=O)[C@H](CC(N)=O)NC(=O)CNC(=O)[C@H](CC(C)C)NC(=O)[C@@H](N)CO)C(=O)O`, the “Stability (T1/2 (h))” value [1] is reported as 0.5 h and the “Stability (T1/2 (h))” value [8] is reported as 3.5 h.

`CC(C)[C@H](N)C(=O)N[C@H](C(=O)NCC(=O)N[C@@H](C)C(=O)N[C@@H](CS)C(=O)NCC(=O)N[C@H](C(=O)NCC(=O)N[C@@H](CCCCN)C(=O)O)C(C)C)C(C)C` was tested, and the “Measured stability” value [3] was 5.0 h and the “Measured stability” value [9] was 10.0 h.

`CC(C)[C@H](N)C(=O)N[C@H](C(=O)NCC(=O)N[C@@H](C)C(=O)N[C@@H](CC(=O)O)C(=O)NCC(=O)N[C@H](C(=O)NCC(=O)N[C@@H](CCCCN)C(=O)O)C(C)C)C(C)C` was tested, and the “Measured stability” value [9] was 3.4 h.

For `CC(C)[C@H](N)C(=O)N[C@H](C(=O)N[C@H](C(=O)NCC(=O)N[C@@H](C)C(=O)N[C@@H](CC(=O)O)C(=O)NCC(=O)N[C@H](C(=O)NCC(=O)N[C@@H](CCCCN)C(=O)O)C(C)C)C(C)C)C(C)C`, the “Measured stability” value [3] was 2.3 h and the “Measured stability” value [9] was 13.0 h.

`CC[C@H](C)[C@H](NC(=O)[C@H](CCCCN)NC(=O)[C@H](CO)NC(=O)[C@H](CCC(=O)O)NC(=O)[C@H](C)NC(=O)[C@H](CCCCN)NC(=O)[C@H](CC(C)C)NC(=O)[C@H](Cc1ccccc1)NC(=O)[C@H](CCSC)NC(=O)[C@@H](N)Cc1ccc(O)cc1)C(=O)O` was tested, and the “Stability (T1/2 (h))” value [1] was 0.4 h and the “Stability (T1/2 (h))” value [8] was 0.6 h.

With `CSCC[C@H](NC(=O)[C@@H](NC(=O)[C@H](Cc1ccc(O)cc1)NC(=O)[C@H](C)NC(=O)[C@H](CCSC)NC(=O)[C@@H](NC(=O)[C@@H](N)Cc1ccc(O)cc1)C(C)C)C(C)C)C(=O)N[C@@H](C)C(=O)NCC(=O)O` the “Stability (T1/2 (h))” value [1] was 1.2 h, the IC50 [10, 16] was 11500 nM and the “Stability (T1/2 (h))” value [8] was 2.5 h.

`CC(C)C[C@H](NC(=O)[C@H](Cc1ccccc1)NC(=O)[C@H](CO)NC(=O)[C@H](CC(C)C)NC(=O)[C@H](CS)NC(=O)[C@H](CO)NC(=O)[C@H](Cc1ccccc1)NC(=O)[C@H](CC(C)C)NC(=O)[C@@H](N)CCCCN)C(=O)O` (H-KLFSCLSFL-OH; N-terminus and C-terminus assumed) was tested, and the “Stability (T1/2 (h))” value ([3]; allele A03.01) was 0.8 h, the IC50 [5, 17] was 308 nM and the IC50 [10, 16] was 6 nM. For the same molecule, the “Stability (T1/2 (h))” value [8] was 14.3 h.

For `CSCC[C@H](NC(=O)[C@H](Cc1ccc(O)cc1)NC(=O)CNC(=O)[C@H](CC(=O)O)NC(=O)[C@H](CCCNC(=N)N)NC(=O)[C@H](CCCCN)NC(=O)[C@@H]1CCCN1C(=O)[C@@H](N)CCCCN)C(=O)N[C@@H](Cc1ccccc1)C(=O)O` (H-KPKRDGYMF-OH; N-terminus and C-terminus assumed), the “detected by mass spectrometry (peptide eluted from HLA-peptide complexes)” value [11] was “detected” and the IC50 [12, 18] was 28.2 nM.

`CSCC[C@H](NC(=O)[C@H](Cc1ccc(O)cc1)NC(=O)CNC(=O)[C@H](CC(=O)O)NC(=O)[C@H](CCCNC(=N)N)NC(=O)[C@H](CCCCN)NC(=O)[C@@H]1CCCN1C(=O)[C@@H](N)CCCCN)C(=O)N[C@@H](Cc1ccccc1)C(=O)N[C@@H](CC(C)C)C(=O)O` (H-KPKRDGYMFL-OH; N-terminus and C-terminus assumed) was tested, and the “detected by mass spectrometry (peptide eluted from HLA-peptide complexes)” value [11] was “detected” and the IC50 [12, 18] was 98.1 nM.

In the case of `CC[C@H](C)[C@H](NC(=O)[C@H](CC(C)C)NC(=O)[C@H](CCC(N)=O)NC(=O)[C@@H](NC(=O)[C@@H](NC(=O)[C@H](CO)NC(=O)[C@@H](NC(=O)[C@@H](N)CC(C)C)[C@@H](C)O)[C@@H](C)O)C(C)C)C(=O)N[C@@H](CCSC)C(=O)O` (H-LTSTVQLIM-OH; N-terminus and C-terminus assumed), the “Stability (half-life (hr.))” value ([4]; EGFR T790M peptides, HLA allele A01.01) is reported as 6.222 min, the Kd [6] is reported as 2890 nM and the IC50 [6, 15] is reported as 2890 nM.

With `CC[C@H](C)[C@H](NC(=O)[C@H](Cc1ccc(O)cc1)NC(=O)[C@H](CCCCN)NC(=O)CNC(=O)[C@H](CCCNC(=N)N)NC(=O)[C@H](CCCCN)NC(=O)[C@H](Cc1c[nH]cn1)NC(=O)[C@H](CC(C)C)NC(=O)[C@@H](N)Cc1c[nH]c2ccccc12)C(=O)O` (H-WLHKRGKYI-OH; N-terminus and C-terminus assumed) the “Stability (T1/2 (h))” value [1] was 1.3 h, the IC50 [12] was 2650 nM and the IC50 [13] was 417 nM. The IC50 ([10]; Observed Affinity (IC50) was 1250 nM and the “Stability (T1/2 (h))” value [8] was 1.2 h.

`CSCC[C@H](NC(=O)[C@@H](N)Cc1ccc(O)cc1)C(=O)N[C@@H](C)C(=O)N[C@@H](CC(N)=O)C(=O)NCC(=O)N[C@@H](CO)C(=O)N[C@@H](CC(C)C)C(=O)N[C@@H](CC(C)C)C(=O)N[C@@H](CC(N)=O)C(=O)N[C@@H](Cc1ccc(O)cc1)C(=O)O` (H-YMANGSLLNY-OH; N-terminus and C-terminus assumed) was tested, and the “Stability (half-life (hr.))” value [3] was 16.75 min, the “Stability (half-life (hr.))” value [4, 14] was 51.97 min and the IC50 ([5]; BTK C481S peptide, HLA Allele A03.01, read-out: Affinity) was 95.9 nM. The IC50 [5, 17] was 95.9 nM, the IC50 ([6]; BTK C481S peptide, HLA Allele A01.01, read-out: Affinity) was 13.2 nM and the IC50 ([6]; allele A01.01, read-out: Observed Affinity (IC50, (nM))) was 13.2 nM. The IC50 ([7]; BTK C481S peptide, HLA Allele A11.01, read-out: Affinity) was 974 nM.
